Key:
[1] = tested on: velvetleaf; assay: Test Example 5: herbicidal effect by foliage application, plastic box (Table 20, symbol M); type: in vivo, velvetleaf (Abutilon theophrasti); conditions: foliage application, AAH 320 g/ha, evaluated three weeks after application
How it was run: (§1)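 Foliar spray test: emulsion formulation diluted in water to a set application rate, sprayed onto 14-day-old plants raised in diluvial soil at 25° C to 30° C under glass. Both herbicidal effect and crop effect rated visually three weeks later.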

[2] = tested on: late watergrass; assay: Test Example 1: herbicidal activity, application before weed generation under submerged conditions (Table 16, symbol A); type: in vivo, late watergrass (Echinochloa oryzicola); conditions: 320 g/ha applied herbicide
How it was run: (§2)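 Emulsion formulation, water-diluted to set dose, was put onto the flooded surface (4 cm depth, alluvial soil) the same day weeds were sown and 2.5-leaf rice transplanted. After 3 weeks at 25-30 °C under glass, each species was rated 0 (≤5% kill) to 5 (≥90% kill).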

[3] = tested on: chickweed; assay: Test Example 5: herbicidal effect by foliage application, plastic box (Table 20, symbol P); type: in vivo, common chickweed (Stellaria media); conditions: foliage application, AAH 320 g/ha, evaluated three weeks after application
How it was run: as §1

[4] = tested on: persian speedwell; assay: Test Example 5: herbicidal effect by foliage application, plastic box (Table 20, symbol R); type: in vivo, Persian speedwell (Veronica persica); conditions: foliage application, AAH 320 g/ha, evaluated three weeks after application
How it was run: as §1

[5] = tested on: green foxtail; assay: Test Example 5: herbicidal effect by foliage application, plastic box (Table 20, symbol G); type: in vivo, green foxtail (Setaria viridis); conditions: foliage application, AAH 320 g/ha, evaluated three weeks after application
How it was run: as §1

[6] = tested on: oval-leafed pondweed; assay: Test Example 1: herbicidal activity, application before weed generation under submerged conditions (Table 16, symbol C); type: in vivo, oval-leafed pondweed (Monochoria vaginalis); conditions: 320 g/ha applied herbicide
How it was run: as §2

[7] = tested on: windgrass; assay: Test Example 4: herbicidal effect by soil treatment (Table 19, symbol L); type: in vivo, windgrass (Apera spica-venti); conditions: amount of applied herbicide 320 g/ha
How it was run: (§3)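 Step 1: sow seeds in sterilized diluvial soil, cover ~1.5 cm. Step 2: spray diluted emulsion onto soil surface at predetermined rate. Step 3: greenhouse, 25–30° C, three weeks. Step 4: grade effect on each plant by earlier criteria.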

[8] = tested on: Italian ryegrass; assay: Test Example 4: herbicidal effect by soil treatment (Table 19, symbol K); type: in vivo, Italian ryegrass (Lolium multiflorum); conditions: amount of applied herbicide 320 g/ha
How it was run: as §3

[9] = tested on: rice flat sedge; assay: Test Example 3: herbicidal effect by foliage application, Wagner pot (Table 18, symbol E); type: in vivo, rice flat sedge (Cyperus iria); conditions: amount of applied herbicide 320 g/ha
How it was run: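 Plants were sown in alluvial soil held under 0.1–0.5 cm standing water and grown 14 days in a greenhouse at 25–30 °C. An emulsifiable formulation, water-diluted to the set dose, was then sprayed onto the foliage, and effects were scored three weeks later using previously defined criteria.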

[10] = tested on: barnyard grass; assay: Test Example 5: herbicidal effect by foliage application, plastic box (Table 20, symbol H); type: in vivo, barnyard grass (Echinochloa crus-galli); conditions: foliage application, AAH 320 g/ha, evaluated three weeks after application
How it was run: as §1

[11] = tested on: southern crabgrass; assay: Test Example 5: herbicidal effect by foliage application, plastic box (Table 20, symbol F); type: in vivo, southern crabgrass (Digitaria ciliaris); conditions: foliage application, AAH 320 g/ha, evaluated three weeks after application
How it was run: as §1

[12] = tested on: oval-leafed pondweed; assay: Test Example 2: herbicidal activity, application during weed generation under submerged conditions (Table 17, symbol C); type: in vivo, oval-leafed pondweed (Monochoria vaginalis); conditions: AAH 320 g/ha; application during weed generation, submerged conditions
How it was run: (§4)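 Alluvial soil in Wagner pots was flooded to 4 cm depth and sown with the three weeds together; pots were kept in a greenhouse at 25° C. to 30° C. At the one to two leaf stage, an emulsion formulation diluted in water to a set rate went onto the water surface; scored three weeks later.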

[13] = tested on: Japanese bulrush; assay: Test Example 2: herbicidal activity, application during weed generation under submerged conditions (Table 17, symbol B); type: in vivo, Japanese bulrush (Schoenoplectus juncoides); conditions: AAH 320 g/ha; application during weed generation, submerged conditions
How it was run: as §4

[14] = tested on: persian speedwell; assay: Test Example 4: herbicidal effect by soil treatment (Table 19, symbol R); type: in vivo, Persian speedwell (Veronica persica); conditions: amount of applied herbicide 320 g/ha
How it was run: as §3

[15] = tested on: wild oat; assay: Test Example 4: herbicidal effect by soil treatment (Table 19, symbol I); type: in vivo, wild oat (Avena fatua); conditions: amount of applied herbicide 320 g/ha
How it was run: as §3

[16] = tested on: redroot pigweed; assay: Test Example 5: herbicidal effect by foliage application, plastic box (Table 20, symbol N); type: in vivo, redroot pigweed (Amaranthus retroflexus); conditions: foliage application, AAH 320 g/ha, evaluated three weeks after application
How it was run: as §1

SMILES | M: velvetleaf, herbicidal effect (criteria 0-5) [1] | Herbicidal effect on A: late watergrass (grade 0-5) [2] | P: chickweed, herbicidal effect (criteria 0-5) [3] | R: persian speedwell, herbicidal effect (criteria 0-5) [4] | G: green foxtail, herbicidal effect (criteria 0-5) [5] | Herbicidal effect on C: oval-leafed pondweed (grade 0-5) [6] | herbicidal effect on L: windgrass [7] | herbicidal effect on K: Italian ryegrass [8] | herbicidal effect on E: rice flat sedge [9] | H: barnyard grass, herbicidal effect (criteria 0-5) [10] | F: southern crabgrass, herbicidal effect (criteria 0-5) [11] | herbicidal effect rating, C: oval-leafed pondweed [12] | herbicidal effect rating, B: Japanese bulrush [13] | herbicidal effect on R: persian speedwell [14] | herbicidal effect on I: wild oat [15] | N: redroot pigweed, herbicidal effect (criteria 0-5) [16]
CCCC(=O)Oc1c(C)nn(C)c(=O)c1-c1c(-c2ccc(SC3CC3)cc2)sc2ccc(F)cc12 [2-255] | 5 (Herbicidal rate of 90% or more (almost completely withered)) | 5 (Herbicidal rate of 90% or more (almost completely withered)) | 5 (Herbicidal rate of 90% or more (almost completely withered)) | 5 (Herbicidal rate of 90% or more (almost completely withered)) | 5 (Herbicidal rate of 90% or more (almost completely withered)) | 3 (Herbicidal rate of 40% or more and less than 70%) | 3 (Herbicidal rate of 40% or more and less than 70%) | 3 (Herbicidal rate of 40% or more and less than 70%) | 5 (Herbicidal rate of 90% or more (almost completely withered)) | 5 (Herbicidal rate of 90% or more (almost completely withered)) | 5 (Herbicidal rate of 90% or more (almost completely withered)) | 2 (Herbicidal rate of 20% or more and less than 40%) | 3 (Herbicidal rate of 40% or more and less than 70%) | 5 (Herbicidal rate of 90% or more (almost completely withered)) | 0 (Herbicidal rate of 5% or less (almost no effect)) | 5 (Herbicidal rate of 90% or more (almost completely withered))
C=C(C)C(=O)Oc1c(C)nn(C)c(=O)c1-c1c(-c2ccc(OC(F)F)cc2)sc2ccc(F)cc12 [2-281] | 5 (Herbicidal rate of 90% or more (almost completely withered)) | 5 (Herbicidal rate of 90% or more (almost completely withered)) | 5 (Herbicidal rate of 90% or more (almost completely withered)) | 5 (Herbicidal rate of 90% or more (almost completely withered)) | 4 (Herbicidal rate of 70% or more and less than 90%) | 4 (Herbicidal rate of 70% or more and less than 90%) | 3 (Herbicidal rate of 40% or more and less than 70%) | 5 (Herbicidal rate of 90% or more (almost completely withered)) | 5 (Herbicidal rate of 90% or more (almost completely withered)) | 5 (Herbicidal rate of 90% or more (almost completely withered)) | 4 (Herbicidal rate of 70% or more and less than 90%) | 5 (Herbicidal rate of 90% or more (almost completely withered)) | 4 (Herbicidal rate of 70% or more and less than 90%) | 5 (Herbicidal rate of 90% or more (almost completely withered)) | 0 (Herbicidal rate of 5% or less (almost no effect)) | 5 (Herbicidal rate of 90% or more (almost completely withered))

From patent US20230085307A1, “PYRIDAZINONE COMPOUND AND HERBICIDE” (NISSAN CHEMICAL CORPORATION, priority 2019, published 2023)
